Reference: article PMC3317655, “The Isolation and Characterization of β-Glucogallin as a Novel Aldose Reductase Inhibitor from Emblica officinalis” (PLoS ONE, 2012)

Legend:
[1] = biological target: T1, human aldose reductase (AKR1B1) (Homo sapiens, UniProt P15121); experiment: Purified recombinant enzyme, NADPH oxidation at […] nm, saturating glucose ([…]) as substrate; type: biochemical
[2] = biological target: T1, human aldose reductase (AKR1B1); experiment: Ex vivo culture of transgenic mouse lenses expressing human AKR1B1; sorbitol accumulation at […] sorbinil; type: cell-based; details: read-out: % inhibition of sorbitol accumulation at 10 μM

IC50 [1] | Structure (SMILES) | inhibition at 10 µM [2]
17 ± 1 µM | O=C(O[C@@H]1O[C@H](CO)[C@@H](O)[C@H](O)[C@H]1O)c1cc(O)c(O)c(O)c1 [β-glucogallin] | 
 | O=C1NC(=O)[C@@]2(CCOc3ccc(F)cc32)N1 [sorbinil] | 97%
